Measured values taken from US11440906B2, “Biguanide derivatives and their rearrangement products for use in the treatment of cancer” (CENTRE NATIONAL DE LA RECHERCHE SCIENTIFIQUE, priority 2017, dated 2022).
Like-named read-outs stand apart in the source and are kept apart here.

System: A375 Sensitive cells
Assay: Viability test, trypan blue exclusion, A375 Sensitive cells
Format: cell-based, human
Settings: Homo sapiens, A-375, viable cells as percentage of DMSO control
Summary of the method: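 A375 (B-Raf, CDKN2A, PTEN mutant) cells were exposed to compounds at 5.0 or 10 μM for 24 or 48 hr; CRO15 also at 0.5–50 μM for 48 hr or 5 μM for 2–48 hr; DMSO control. Viable cells were counted by trypan blue exclusion, as % of control. Three experiments in triplicate.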

[1] = 24 h, read-out: Viab A375 5 μM/ 24 h
[2] = 48 h, read-out: Viab A375 5 μM/ 48 h
[3] = 24 h, read-out: Viab A375 10 μM/ 24 h
[4] = 48 h, read-out: Viab A375 10 μM/ 48 h

N=c1nc(C(Cl)(Cl)Cl)nc(Nc2ccccc2O)[nH]1 [MTF 373, 2-((4-amino-6-(trichloromethyl)-1,3,5-triazin-2-yl)amino)phenol]
viability at 5 µM [1]: 34.3% | viability at 5 µM [2]: 22.5% | viability at 10 µM [3]: 38.6% | viability at 10 µM [4]: 22.8%

N=c1nc(C(Cl)(Cl)Cl)nc(Nc2cc(Cl)ccc2O)[nH]1 [MTF 374, 2-((4-amino-6-(trichloromethyl)-1,3,5-triazin-2-yl)amino)-4-chlorophenol]
viability at 5 µM [1]: 47% | viability at 5 µM [2]: 69.2% | viability at 10 µM [3]: 24% | viability at 10 µM [4]: 27.7%

N=c1nc(C(Cl)(Cl)Cl)nc(Nc2ccc(Cl)cc2O)[nH]1 [MTF 375]
viability at 5 µM [1]: 47.2% | viability at 5 µM [2]: 29.5% | viability at 10 µM [3]: 30.9% | viability at 10 µM [4]: 15.5%

Nc1nc(Nc2ccc([N+](=O)[O-])cc2O)nc(C(Cl)(Cl)Cl)n1 [MTF 376, 2-((4-amino-6-(trichloromethyl)-1,3,5-triazin-2-yl)amino)-5-nitrophenol]
viability at 5 µM [1]: 44.7% | viability at 5 µM [2]: 38.9% | viability at 10 µM [3]: 24.3% | viability at 10 µM [4]: 20.9%

Nc1nc(Nc2cc([N+](=O)[O-])ccc2O)nc(C(Cl)(Cl)Cl)n1 [MTF 377, 2-((4-amino-6-(trichloromethyl)-1,3,5-triazin-2-yl)amino)-4-nitrophenol]
viability at 5 µM [1]: 27.3% | viability at 5 µM [2]: 34.4% | viability at 10 µM [3]: 22.7% | viability at 10 µM [4]: 33.5%

N=C(NC(=N)c1ccc(Cl)nc1)Nc1nc2ccccc2s1 [MTF 379, N—(N-(benzo[d]thiazol-2-yl)carbamimidoyl)-6-chloronicotinimidamide]
viability at 5 µM [1]: 148% | viability at 5 µM [2]: 76.9% | viability at 10 µM [3]: 95.7% | viability at 10 µM [4]: 86.2%

N=C(NC(=N)c1ccnc(Cl)c1)Nc1nc2ccccc2s1 [MTF 380, N—(N-(benzo[d]thiazol-2-yl)carbamimidoyl)-2-chloroisonicotinimidamide]
viability at 5 µM [1]: 47.3% | viability at 5 µM [2]: 4.9% | viability at 10 µM [3]: 36.2% | viability at 10 µM [4]: 2.3%

N=C(NC(=N)c1cccs1)Nc1nc2ccccc2s1 [MTF 381, N—(N-(benzo[d]thiazol-2-yl)carbamimidoyl)thiophene-2-carboximidamide]
viability at 5 µM [1]: 88.3% | viability at 5 µM [2]: 61.6% | viability at 10 µM [3]: 90.6% | viability at 10 µM [4]: 61.4%

COc1cc(C(=N)NC(=N)Nc2nc3ccccc3s2)cc(OC)c1OC [MTF 382, N—(N-(benzo[d]thiazol-2-yl)carbamimidoyl)-3,4,5-trimethoxybenzimidamide]
viability at 5 µM [1]: 14.7% | viability at 5 µM [2]: 1.8% | viability at 10 µM [3]: 17.4% | viability at 10 µM [4]: 4.5%

N=C(NC(=N)c1ccc2c(c1)OCO2)Nc1nc2ccccc2s1 [MTF 383, N—(N-(benzo[d]thiazol-2-yl)carbamimidoyl)benzo[d][1,3]dioxole-5-carboximidamide]
viability at 5 µM [1]: 43.1% | viability at 5 µM [2]: 40.6% | viability at 10 µM [3]: 41.6% | viability at 10 µM [4]: 7.1%

N=C(NC(=N)c1ccc2ccccc2c1)Nc1nc2ccccc2s1 [MTF 384, N—(N-(benzo[d]thiazol-2-yl)carbamimidoyl)-2-naphthimidamide]
viability at 5 µM [1]: 76.1% | viability at 5 µM [2]: 119% | viability at 10 µM [3]: 93.3% | viability at 10 µM [4]: 72.2%

N=C(NC(=N)c1ccc(C(F)(F)F)cc1)Nc1nc2ccccc2s1 [MTF 385, N—(N-(benzo[d]thiazol-2-yl)carbamimidoyl)-4-(trifluoromethyl)benzimidamide]
viability at 5 µM [1]: 52.3% | viability at 5 µM [2]: 68.1% | viability at 10 µM [3]: 86.6% | viability at 10 µM [4]: 81.5%

N=C(NC(=N)c1ccnc(Br)c1)Nc1nc2ccccc2s1 [MTF 386, N—(N-(benzo[d]thiazol-2-yl)carbamimidoyl)-2-bromoisonicotinimidamide]
viability at 5 µM [1]: 28.9% | viability at 5 µM [2]: 6.6% | viability at 10 µM [3]: 18.1% | viability at 10 µM [4]: 3.7%

N=C(NC(=N)c1cscc1Br)Nc1nc2ccccc2s1 [MTF 387, N—(N-(benzo[d]thiazol-2-yl)carbamimidoyl)-4-bromothiophene-3-carboximidamide]
viability at 5 µM [1]: 70.1% | viability at 5 µM [2]: 56.2% | viability at 10 µM [3]: 67.8% | viability at 10 µM [4]: 55.6%

CC1(C)C=Cc2cc(C(=N)NC(=N)Nc3nc4ccccc4s3)ccc2O1 [MTF 388, N—(N-(benzo[d]thiazol-2-yl)carbamimidoyl)-2,2-dimethyl-2H-chromene-6-carboximidamide]
viability at 5 µM [1]: 61.4% | viability at 5 µM [2]: 65.1% | viability at 10 µM [3]: 55.7% | viability at 10 µM [4]: 18.4%

N=C(NC(=N)c1ncc(Cl)cc1Cl)Nc1nc2ccccc2s1 [MTF 389, N—(N-(benzo[d]thiazol-2-yl)carbamimidoyl)-3,5-dichloropicolinimidamide]
viability at 5 µM [1]: 74.6% | viability at 5 µM [2]: 85.6% | viability at 10 µM [3]: 75.8% | viability at 10 µM [4]: 76.4%

Nc1nc(Nc2ccccc2SSc2ccccc2Nc2nc(N)nc(-c3ccc(C(F)(F)F)cc3)n2)nc(-c2ccc(C(F)(F)F)cc2)n1 [MTF 394, N2,N2′-(disulfanediylbis(2,1-phenylene))bis(6-(4-(trifluoromethyl)phenyl)-1,3,5-triazine-2,4-diamine)]
viability at 5 µM [1]: 13.1% | viability at 5 µM [2]: 4.4% | viability at 10 µM [3]: 4.5% | viability at 10 µM [4]: 1.1%

Nc1nc(Nc2ccccc2SSc2ccccc2Nc2nc(N)nc(-c3cccs3)n2)nc(-c2cccs2)n1 [MTF 396, N2,N2′-(disulfanediylbis(2,1-phenylene))bis(6-(thiophen-2-yl)-1,3,5-triazine-2,4-diamine)]
viability at 5 µM [1]: 19.2% | viability at 5 µM [2]: 12.1% | viability at 10 µM [3]: 7.5% | viability at 10 µM [4]: 0%

Nc1nc(Nc2ccccc2SSc2ccccc2Nc2nc(N)nc(-c3cscc3Br)n2)nc(-c2cscc2Br)n1 [MTF 397, N2,N2′-(disulfanediylbis(2,1-phenylene))bis(6-(4-bromothiophen-3-yl)-1,3,5-triazine-2,4-diamine)]
viability at 5 µM [1]: 35.4% | viability at 5 µM [2]: 33.7% | viability at 10 µM [3]: 13.4% | viability at 10 µM [4]: 7.3%

N=C(NC(=N)c1ccc([N+](=O)[O-])cc1)Nc1nc2ccccc2s1 [MTF 398, N—(N-(benzo[d]thiazol-2-yl)carbamimidoyl)-4-nitrobenzimidamide]
viability at 5 µM [1]: 91.9% | viability at 5 µM [2]: 132% | viability at 10 µM [3]: 91% | viability at 10 µM [4]: 109%

Nc1nc(Nc2ccccc2SSc2ccccc2Nc2nc(N)nc(-c3ccc4ccccc4c3)n2)nc(-c2ccc3ccccc3c2)n1 [MTF 443, N2,N2′-(disulfanediylbis(2,1-phenylene))bis(6-(naphthalen-2-yl)-1,3,5-triazine-2,4-diamine)]
viability at 5 µM [1]: 42.3% | viability at 5 µM [2]: 10.2% | viability at 10 µM [3]: 13.8% | viability at 10 µM [4]: 7.8%

Nc1nc(Nc2ccccc2SSc2ccccc2Nc2nc(N)nc(-c3cccc([N+](=O)[O-])c3)n2)nc(-c2cccc([N+](=O)[O-])c2)n1 [MTF 445, N2,N2′-(disulfanediylbis(2,1-phenylene))bis(6-(3-nitrophenyl)-1,3,5-triazine-2,4-diamine)]
viability at 5 µM [1]: 62.6% | viability at 5 µM [2]: 35.2% | viability at 10 µM [3]: 72.4% | viability at 10 µM [4]: 16.3%

COc1cc(-c2nc(N)nc(Nc3ccccc3SSc3ccccc3Nc3nc(N)nc(-c4cc(OC)c(OC)c(OC)c4)n3)n2)cc(OC)c1OC [MTF 446, N2,N2′-(disulfanediylbis(2,1-phenylene))bis(6-(3,4,5-trimethoxyphenyl)-1,3,5-triazine-2,4-diamine)]
viability at 5 µM [1]: 62.6% | viability at 5 µM [2]: 13% | viability at 10 µM [3]: 16.3% | viability at 10 µM [4]: 1.8%

Nc1nc(Nc2ccccc2SSc2ccccc2Nc2nc(N)nc(-c3ccc4c(c3)OCO4)n2)nc(-c2ccc3c(c2)OCO3)n1 [MTF 449, N2,N2′-(disulfanediylbis(2,1-phenylene))bis(6-(benzo[d][1,3]dioxol-5-yl)-1,3,5-triazine-2,4-diamine)]
viability at 5 µM [1]: 74.2% | viability at 5 µM [2]: 67.8% | viability at 10 µM [3]: 59.1% | viability at 10 µM [4]: 53%

Nc1nc(Nc2ccccc2SSc2ccccc2Nc2nc(N)nc(-c3ccccc3Cl)n2)nc(-c2ccccc2Cl)n1 [MTF 450, N2,N2′-(disulfanediylbis(2,1-phenylene))bis(6-(2-chlorophenyl)-1,3,5-triazine-2,4-diamine)]
viability at 5 µM [1]: 38.6% | viability at 5 µM [2]: 54.8% | viability at 10 µM [3]: 38.3% | viability at 10 µM [4]: 49.9%

Cc1ccc(-c2nc(N)nc(Nc3ccccc3SSc3ccccc3Nc3nc(N)nc(-c4ccc(C)cc4)n3)n2)cc1 [MTF 451, N2,N2′-(disulfanediylbis(2,1-phenylene))bis(6-(p-tolyl)-1,3,5-triazine-2,4-diamine)]
viability at 5 µM [1]: 26.1% | viability at 5 µM [2]: 23.9% | viability at 10 µM [3]: 10.6% | viability at 10 µM [4]: 12.5%

Nc1nc(Nc2ccccc2SSc2ccccc2Nc2nc(N)nc(-c3ccccc3F)n2)nc(-c2ccccc2F)n1 [MTF 452, N2,N2′-(disulfanediylbis(2,1-phenylene))bis(6-(2-fluorophenyl)-1,3,5-triazine-2,4-diamine)]
viability at 5 µM [1]: 43.6% | viability at 5 µM [2]: 60.5% | viability at 10 µM [3]: 22.3% | viability at 10 µM [4]: 40.3%

Nc1nc(Nc2ccccc2SSc2ccccc2Nc2nc(N)nc(-c3c(Cl)cccc3Cl)n2)nc(-c2c(Cl)cccc2Cl)n1 [MTF 455, N2,N2′-(disulfanediylbis(2,1-phenylene))bis(6-(2,6-dichlorophenyl)-1,3,5-triazine-2,4-diamine)]
viability at 5 µM [1]: 89% | viability at 5 µM [2]: 108% | viability at 10 µM [3]: 32.3% | viability at 10 µM [4]: 69.5%
